Reference: patent publication US4931436A, “Condensed diazepinones, processes for preparing them and pharmaceutical compositions containing these compounds” (Dr. Karl Thomae GmbH, priority 1988, dated 1990)
Where a name gives a salt, the structure may show the parent alone. Read-outs that look alike come from different tables or passages of the source.

Legend:
Solubility in water = assay type: physicochemical
[1] = target: T1, muscarinic receptors (ileum) (Cavia porcellus, UniProt H0W1Z3); experiment: Dissociation constants (KB values) on the isolated ileum; settings: guinea pig, methacholine, 30 minutes contact
T1 construct: from tissue; host or cells: isolated ileum of the guinea pig
T1 sequence (H0W1Z3 1-590): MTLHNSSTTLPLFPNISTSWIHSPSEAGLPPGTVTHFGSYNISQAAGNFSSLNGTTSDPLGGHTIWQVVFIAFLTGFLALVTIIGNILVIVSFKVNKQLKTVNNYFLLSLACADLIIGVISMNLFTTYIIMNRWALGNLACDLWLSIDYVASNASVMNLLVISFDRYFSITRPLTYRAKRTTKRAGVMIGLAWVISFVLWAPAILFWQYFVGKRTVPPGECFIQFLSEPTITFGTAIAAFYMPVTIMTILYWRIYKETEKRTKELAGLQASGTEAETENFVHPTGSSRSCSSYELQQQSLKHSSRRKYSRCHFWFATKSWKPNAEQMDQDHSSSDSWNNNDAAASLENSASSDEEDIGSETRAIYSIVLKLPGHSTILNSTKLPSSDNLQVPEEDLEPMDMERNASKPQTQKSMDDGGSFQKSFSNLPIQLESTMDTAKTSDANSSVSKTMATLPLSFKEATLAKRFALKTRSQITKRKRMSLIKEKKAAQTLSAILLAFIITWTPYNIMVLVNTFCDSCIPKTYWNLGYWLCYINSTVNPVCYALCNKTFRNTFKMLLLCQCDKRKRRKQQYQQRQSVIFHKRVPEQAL
Method: (§1) Dissociation constants (KB values) were determined "in vitro" on the ileum and spontaneously beating atrium of the guinea pig. The ileum was taken out and incubated in Krebs-Henseleit solution in an organ bath. Contractions were induced by increasing concentrations of methacholine (M) so that total concentration/activity curves could be recorded. M was then washed out, the test substance was added and kept in contact for 30 minutes and another concentration/activity curve was recorded with M.

[2] = test system: muscarinic receptors (bronchi); experiment: Receptor binding test in vivo (3H-NMS), bronchi; design: species or system rat (female); settings: i.v., in vivo 3H-NMS binding, rat; 30 min
Method: (§2) For these experiments, female rats with a body weight of about 200 g were used. Before the start of the experiment the animals were anaesthetised with a dose of 1.25 g/kg of urethane. The animals were given the dosage of test substance by i.v. injection. After 15 minutes, 113 ng/kg of ^3 H-N-methylscopolamine (^3 H-NMS) were given by the same route. After another 15 minutes the animals were killed and their heart, bronchi and lachrymal glands were taken out. These organs were dissolved in Soluene R and the radioactivity was measured. These measurements were taken as representing total binding. […] The ID50 values for the individual organs were determined from these experiments. […]

[3] = target: T2, muscarinic receptors (heart, ventricle) (Rattus norvegicus, UniProt P10980); experiment: Receptor binding test in vivo (3H-NMS), ventricle; design: species or system rat (female); settings: iv, 0.5 h, read-out: ID50, Heart, Ventricle
T2 construct: from tissue; host or cells: heart (atrium, ventricle) of female rats, labelled in vivo
T2 sequence (P10980 1-466): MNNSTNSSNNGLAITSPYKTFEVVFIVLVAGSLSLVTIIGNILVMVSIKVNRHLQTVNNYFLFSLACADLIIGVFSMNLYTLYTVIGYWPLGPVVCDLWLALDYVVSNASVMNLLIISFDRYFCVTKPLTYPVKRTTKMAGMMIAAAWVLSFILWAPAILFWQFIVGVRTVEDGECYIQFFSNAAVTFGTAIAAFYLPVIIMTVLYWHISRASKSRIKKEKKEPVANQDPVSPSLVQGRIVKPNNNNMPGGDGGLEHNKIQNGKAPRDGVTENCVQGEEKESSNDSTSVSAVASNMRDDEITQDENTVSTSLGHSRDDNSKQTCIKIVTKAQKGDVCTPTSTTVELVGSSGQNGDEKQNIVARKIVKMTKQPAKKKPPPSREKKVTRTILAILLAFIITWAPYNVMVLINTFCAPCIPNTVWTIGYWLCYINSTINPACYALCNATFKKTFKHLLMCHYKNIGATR
Method: as §2

[4] = target: T3, muscarinic receptors (heart, atrium) (Rattus norvegicus, UniProt P10980); experiment: Receptor binding test in vivo (3H-NMS), atrium; design: species or system rat (female)
T3 construct: from tissue; host or cells: heart (atrium, ventricle) of female rats, labelled in vivo
T3 sequence (P10980 1-466): T2 sequence (P10980 1-466)
Method: as §2

[5] = target: muscarinic receptors (lachrymal glands) (Rattus norvegicus, UniProt P08483); experiment: in vivo; settings: for ED50: iv, 0.5 h, read-out: ID50, Lachrymal glands
Chain of muscarinic receptors (lachrymal glands) (P08483 whole entry): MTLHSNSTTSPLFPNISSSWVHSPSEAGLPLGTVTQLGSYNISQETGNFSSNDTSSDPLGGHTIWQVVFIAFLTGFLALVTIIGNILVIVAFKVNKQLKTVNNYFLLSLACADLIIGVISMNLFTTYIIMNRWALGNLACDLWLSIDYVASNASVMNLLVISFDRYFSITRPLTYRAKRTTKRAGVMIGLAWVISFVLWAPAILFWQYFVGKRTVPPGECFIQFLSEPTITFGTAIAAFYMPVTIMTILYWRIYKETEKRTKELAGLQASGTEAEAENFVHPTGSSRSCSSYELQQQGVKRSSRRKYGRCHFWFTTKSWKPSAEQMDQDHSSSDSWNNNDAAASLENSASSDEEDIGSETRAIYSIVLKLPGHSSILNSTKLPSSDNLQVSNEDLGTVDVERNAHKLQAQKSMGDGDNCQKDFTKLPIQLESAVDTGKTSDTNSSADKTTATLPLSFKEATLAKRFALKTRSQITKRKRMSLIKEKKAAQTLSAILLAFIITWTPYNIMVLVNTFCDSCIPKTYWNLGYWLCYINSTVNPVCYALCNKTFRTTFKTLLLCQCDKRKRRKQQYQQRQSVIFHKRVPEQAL
Method: as §2

[6] = target: muscarinic receptors (submandibular gland) (Rattus norvegicus, UniProt P08483); experiment: biochemical; assay type: binding, rat (male Sprague-Dawley); settings: in vitro, 0.3 nmolar 3H-NMS, 45 min, 30° C., read-out: log IC50, Submandibular gland (converted)
Chain of muscarinic receptors (submandibular gland) (P08483 whole entry): as above

[7] = target: T4, muscarinic receptors (heart) (Rattus norvegicus, UniProt P10980); experiment: Receptor binding test in vitro, 3H-NMS displacement, whole heart; design: species or system rat (male Sprague-Dawley)
T4 construct: The whole heart was cut up with scissors; from tissue; host or cells: whole heart of male Sprague-Dawley rats, homogenate
T4 sequence (P10980 1-466): T2 sequence (P10980 1-466)
Method: The organs were donated by male Sprague-Dawley rats weighing 180-220 g. After the heart and submandibular gland had been removed, all other steps were carried out in ice cold Hepes HCl buffer (pH 7.4; 100 mmolar NaCl, 10 mmolar MgCl2). The whole heart was cut up with scissors. All the organs were then homogenised in a Potter apparatus.
For the binding test the homogenised organs were diluted as follows:
The homogenised organs were incubated at a certain concentration of the radioligand and at a series of concentrations of the non-radioactive test substances in an Eppendorf centrifuge tube at 30° C. Incubation lasted 45 minutes. […] Incubation was ended by the addition of ice cold buffer followed by vacuum filtration. The filters were rinsed with cold buffer and their radioactivity was determined. […] Each measurement was taken four times. The IC50 values of the non-labelled test substances were determined graphically.

M1 = target: T5, M1 (Rattus norvegicus, UniProt P08482); experiment: M1 activity in the rat: inhibition of rise in blood pressure caused by McN-A-343; assay type: in vivo, rat (male THOM); settings: iv, 5 min, read-out: M1 activity (rat) ED50
T5 construct: from tissue; host or cells: living male THOM rat (site of action, sympathetic ganglia, is own knowledge)
T5 sequence (P08482 1-460): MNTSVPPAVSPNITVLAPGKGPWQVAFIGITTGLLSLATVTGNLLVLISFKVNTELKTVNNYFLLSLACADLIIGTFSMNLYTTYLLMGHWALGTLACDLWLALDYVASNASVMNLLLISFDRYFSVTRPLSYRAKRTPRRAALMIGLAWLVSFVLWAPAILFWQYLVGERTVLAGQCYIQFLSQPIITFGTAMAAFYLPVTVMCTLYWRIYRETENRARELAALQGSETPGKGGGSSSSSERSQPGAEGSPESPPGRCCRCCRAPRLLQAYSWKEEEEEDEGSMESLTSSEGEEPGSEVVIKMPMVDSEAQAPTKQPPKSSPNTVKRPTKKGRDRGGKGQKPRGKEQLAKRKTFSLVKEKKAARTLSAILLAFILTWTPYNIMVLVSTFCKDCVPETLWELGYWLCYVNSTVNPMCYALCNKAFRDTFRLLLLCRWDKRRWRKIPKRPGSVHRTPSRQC
Method: The dosage of the substances which reduced either the vagal bradycardia (M2) or the rise in blood pressure (M1) by 50% was determined graphically. For the results see Table II.

M2 = target: T6, M2 (Rattus norvegicus, UniProt P10980); experiment: M2 activity in the rat: inhibition of bradycardia caused by vagus stimulation; assay type: in vivo, rat (male THOM); settings: iv, 5 min, 50% reduction of vagal bradycardia
T6 construct: The bradycardia caused by vagus stimulation; from tissue; host or cells: heart of the living male THOM rat
T6 sequence (P10980 1-466): T2 sequence (P10980 1-466)
Method: The method used was described by Hammer and Giachetti (Life Sciences 31, 2991-2998 (1982)). 5 minutes after the intravenous injection of increasing doses of the substance, either the right vagus was electrically stimulated (frequency: 25 Hz; pulse width: 2 ms; duration of stimulus: 30 s; voltage: supramaximal) or 0.3 mg/kg of McN-A-343 were intravenously injected into male THOM rats. The bradycardia caused by vagus stimulation and the rise in blood pressure caused by McN-A-343 were determined. The dosage of the substances which reduced either the vagal bradycardia (M2) or the rise in blood pressure (M1) by 50% was determined graphically. For the results see Table II.

[8] = test system: muscarinic receptors of the atrium; experiment: Dissociation constants (KB values) on the isolated spontaneously beating right atrium; design: species or system guinea pig; settings: guinea pig heart and ileum in vitro
Method: as §1
(§3) Dissociation constants for the muscarinic receptors of the atrium were obtained in the manner described above.

[9] = target: T7, muscarinic receptors of the atrium (Cavia porcellus, UniProt H0VRN8); experiment: as above; design: species or system guinea pig; settings: spontaneously beating atrium, guinea pig, methacholine, 30 minutes contact; read-out: KB, Heart
T7 construct: isolated, spontaneously beating, right atrium; from tissue; host or cells: isolated spontaneously beating right atrium of the guinea pig
T7 sequence (H0VRN8 1-466): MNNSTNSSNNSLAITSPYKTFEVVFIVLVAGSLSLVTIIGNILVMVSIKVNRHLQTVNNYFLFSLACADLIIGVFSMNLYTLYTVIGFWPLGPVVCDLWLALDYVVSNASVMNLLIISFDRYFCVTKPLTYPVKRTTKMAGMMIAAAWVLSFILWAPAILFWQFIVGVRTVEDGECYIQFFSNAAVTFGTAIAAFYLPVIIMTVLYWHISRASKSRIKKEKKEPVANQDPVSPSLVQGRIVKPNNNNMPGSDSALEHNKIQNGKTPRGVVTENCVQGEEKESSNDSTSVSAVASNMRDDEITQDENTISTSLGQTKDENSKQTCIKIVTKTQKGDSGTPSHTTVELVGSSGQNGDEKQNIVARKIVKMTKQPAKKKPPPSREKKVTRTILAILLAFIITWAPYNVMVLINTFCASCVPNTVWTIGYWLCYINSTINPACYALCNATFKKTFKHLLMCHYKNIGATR
Method: as §1, §3

heart rate = experiment: Inhibition of acetylcholine activity on heart rate; assay type: in vivo, guinea pig; settings: Cavia porcellus, 5 min, read-out: log ED50, Heart
Method: (§4) 5 minutes after the administration of the test substance, 10 mcg/kg of acetylcholine were simultaneously injected intravenously and intra-arterially into anaesthetised guinea pigs. The heart rate was recorded directly by extracorporeal derivation of the ECG, the expiration resistance according to Konzett-Rossler and contraction of the exposed bladder. In order to determine the inhibition of the acetylcholine activity on the organs under investigation, dosage/activity curves were recorded and from them -log ED50 values were determined.

bladder = experiment: Inhibition of acetylcholine activity on the bladder (contraction of the exposed bladder); assay type: in vivo, guinea pig; settings: Cavia porcellus, 5 min, read-out: log ED50, Bladder
Method: as §4

[10] = i.v., 50% reduction of McN-A-343 rise in blood pressure

Structure (SMILES): CS(=O)(=O)O.O=C1Nc2cccnc2N(C(=O)N2CCCC(CCCN3CCCCC3)C2)c2ccccc21 (stereo not drawn) [Example 1 methanesulphonate, 5,11-dihydro-11-[[3-[3-(1-piperidinyl)propyl]-1-piperidinyl]carbonyl]-6H-pyrido[2,3-b][1,4]benzodiazepin-6-one-methanesulphonate]
- solubility in water (in words) (Solubility in water): readily soluble in water

Structure (SMILES): CCN(CC)CCCCC1CCCCN1C(=O)N1c2ccccc2C(=O)Nc2cccnc21 (stereo not drawn) [Example 4 dihydrochloride]
- solubility in water (in words) (Solubility in water): water soluble

Structure (SMILES): O=C1Nc2cccnc2N(C(=O)N2CCCC(CCCN3CCCCC3)C2)c2ccccc21 (stereo not drawn) [Substance A, 5,11-dihydro-11-[[3-[3-(1-piperidinyl)propyl]-1-piperidinyl]carbonyl]-6H-pyrido[2,3-b][1,4]-benzodiazepin-6-one]
- Kb [1]: 3.23 nM
- ID50, Bronchi [2]: 0.06 mg/kg
- ED50 ([3]; i.v., in vivo 3H-NMS binding): 0.005 mg/kg
- potency on the heart compared with X and Y, Table IV (in words) ([4]; in vivo binding): significant improvement in potency compared with substances X and Y on the heart
- Ratio of ID50 in the lachrymal glands to ID50 in the atrium ([5]; in vivo binding): 20
- IC50 [6]: 20 nM
- Selectivity factor: ratio IC50 submandibular gland to IC50 heart [7]: 10
- ED50 (M1; [10]): 0.049 mg/kg
- ED50 (M2): 6.9 µg/kg
- effectiveness compared with X and Y, Table III (in words) [8]: significantly more effective than X and Y
- selectivity heart vs smooth muscle, Table III (in words) [8]: a clear selectivity in favour of the heart
- Kb [9]: 0.347 nM

Structure (SMILES): Cl.O=C1Nc2cccnc2N(C(=O)N2CCCC(CCCN3CCCC3)C2)c2ccccc21 (stereo not drawn) [Substance B, 5,11-dihydro-11-[[3-[3-(1-pyrrolidinyl)propyl]-1-piperidinyl]carbonyl]-6H-pyrido[2,3-b][1,4]benzodiazepin-6-one-hydrochloride]
- IC50 [6]: 39.8 nM
- Selectivity factor: ratio IC50 submandibular gland to IC50 heart [7]: 4

Structure (SMILES): CS(=O)(=O)O.O=C1Nc2cccnc2N(C(=O)N2CCCC(CCN3CCCCC3)C2)c2ccccc21 (stereo not drawn) [Substance C, 5,11-dihydro-11-[[3-[2-(1-piperidinyl)ethyl]-1-piperidinyl]carbonyl]-6H-pyrido[2,3-b][1,4]benzodiazepin-6-one-methanesulphonate]
- IC50 [6]: 30.2 nM
- Selectivity factor: ratio IC50 submandibular gland to IC50 heart [7]: 10
- ED50 (M1; [10]): 0.039 mg/kg
- ED50 (M2): 7.6 µg/kg

Structure (SMILES): O=C1Nc2cccnc2N(C(=O)N2CCCC(CCN3CCCC3)C2)c2ccccc21 (stereo not drawn) [Substance D, 5,11-dihydro-11-[[3-[2-(1-pyrrolidinyl)ethyl]-1-piperidinyl]carbonyl]-6H-pvrido[2,3-b][1,4]benzodiazepin-6-one-hydrochloride]
- IC50 [6]: 50.1 nM
- Selectivity factor: ratio IC50 submandibular gland to IC50 heart [7]: 8.3

Structure (SMILES): CN(CCC1CCCN(C(=O)N2c3ccccc3C(=O)Nc3cccnc32)C1)C1CCCC1 (stereo not drawn) [Substance E]
- IC50 [6]: 30.2 nM
- Selectivity factor: ratio IC50 submandibular gland to IC50 heart [7]: 10

Structure (SMILES): Cl.O=C1Nc2cccnc2N(C(=O)N2CCCC(CCN3CCCCCC3)C2)c2ccccc21 (stereo not drawn) [Substance F, 5,11-dihydro-11-[[3-[2-(hexahydro-1H-1-azepinyl)ethyl]-1-piperidinyl]carbonyl]-6H-pyrido[2,3-b][1,4]-benzodiazepin-6-one-hydrochloride]
- IC50 [6]: 30.2 nM
- Selectivity factor: ratio IC50 submandibular gland to IC50 heart [7]: 10

Structure (SMILES): O=C1Nc2ccccc2N(C(=O)N2CCCC(CCN3CCCCC3)C2)c2ncccc21 (stereo not drawn) [Substance G, 6,11-dihydro-11-[[3-[2-(1-piperidinyl)ethyl]-1-piperidinyl]carbonyl]-5H-pyrido[2,3-b][1,5]benzodiazepin-5-one]
- IC50 [6]: 39.8 nM
- Selectivity factor: ratio IC50 submandibular gland to IC50 heart [7]: 10
- ED50 (M1; [10]): 0.00716 mg/kg
- ED50 (M2): 8.13 µg/kg

Structure (SMILES): CCN(CC)CC1CCCCN1CC(=O)N1c2ccccc2C(=O)Nc2cccnc21 (stereo not drawn) [Substance X, 11-[[2-[(diethylamino)methyl]-1-piperidinyl]acetyl]-5,11-dihydro-6H-pyrido[2,3-b][1,4]benzodiazepin-6-one]
- ED50 [5]: > 30 mg/kg

Structure (SMILES): CN1[C@@H]2CC[C@H]1C[C@@H](OC(=O)C(CO)c1ccccc1)C2 (stereo partly drawn) [Substance Z, atropine, reference compound]
- ED50 (heart rate): 0.02 µmol/kg
- ID50, Bronchi [2]: 0.1 mg/kg
- ED50 (bladder): 0.0933 µmol/kg
- ED50 [3]: 0.03 mg/kg
- ED50 ([4]; iv, 0.5 h, read-out: ID50, Heart, Atrium): 0.08 mg/kg
- ED50 [5]: 0.2 mg/kg
- ED50 (M1): 0.016 mg/kg
- Kb [9]: 1.41 nM
